Experimental data reported in the NIST ThermoML archive (doi:10.1021/je900550v).

Settings: 101.33 kPa, Liquid; for speed of sound: Pulse-echo method; for mass density: Vibrating tube method

CCCC(=O)[O-].C[NH2+]CCO [N-methyl-2-hydroxyethylammonium butanoate]
Settings	mass density [kg/m3]	speed of sound [m/s]	viscosity [mPa·s]
278.15 K	1052.71	1683.5	–
278.4 K	1052.55	1682.5	–
278.65 K	1052.38	1681.5	–
278.9 K	1052.21	1680.6	–
279.15 K	1052.04	1679.6	–
279.4 K	1051.88	1678.7	–
279.65 K	1051.71	1677.7	–
279.9 K	1051.54	1676.8	–
280.15 K	1051.38	1675.8	–
280.4 K	1051.21	1674.8	–
280.65 K	1051.04	1673.9	–
280.9 K	1050.88	1673	–
281.15 K	1050.71	1672	–
281.4 K	1050.54	1671.1	–
281.65 K	1050.38	1670.1	–
281.9 K	1050.21	1669.2	–
282.15 K	1050.02	1668.4	–
282.4 K	1049.85	1667.4	–
282.65 K	1049.69	1666.6	–
282.9 K	1049.52	1665.7	–
283.15 K	1049.35	1664.8	–
283.4 K	1049.19	1663.8	–
283.65 K	1049.02	1663	–
283.9 K	1048.85	1662.1	–
284.15 K	1048.68	1661.2	–
284.4 K	1048.52	1660.3	–
284.65 K	1048.35	1659.4	–
284.9 K	1048.18	1658.5	–
285.15 K	1048.02	1657.7	–
285.4 K	1047.85	1656.8	–
285.65 K	1047.68	1655.9	–
285.9 K	1047.52	1655	–
286.15 K	1047.35	1654.2	–
286.4 K	1047.18	1653.3	–
286.65 K	1047.01	1652.4	–
286.9 K	1046.85	1651.6	–
287.15 K	1046.68	1650.7	–
287.4 K	1046.51	1649.9	–
287.65 K	1046.34	1649	–
287.9 K	1046.17	1648.1	–
288.15 K	1046.01	1647.3	609.15
288.4 K	1045.84	1646.5	–
288.65 K	1045.67	1645.6	–
288.9 K	1045.5	1644.8	–
289.15 K	1045.34	1643.9	–
289.4 K	1045.17	1643	–
289.65 K	1045	1642.2	–
289.9 K	1044.83	1641.4	–
290.15 K	1044.66	1640.5	516.28
290.4 K	1044.5	1639.7	–
290.65 K	1044.33	1638.9	–
290.9 K	1044.16	1638	–
291.15 K	1043.99	1637.2	–
291.4 K	1043.82	1636.3	–
291.65 K	1043.65	1635.5	–
291.9 K	1043.48	1634.7	–
292.15 K	1043.32	1633.9	–
292.4 K	1043.15	1633.1	–
292.65 K	1042.98	1632.3	–
292.9 K	1042.81	1631.5	–
293.15 K	1042.64	1630.6	433.8
293.4 K	1042.47	1629.8	–
293.65 K	1042.3	1629	–
293.9 K	1042.13	1628.2	–
294.15 K	1041.96	1627.4	–
294.4 K	1041.79	1626.6	–
294.65 K	1041.63	1625.7	–
294.9 K	1041.45	1624.9	–
295.15 K	1041.29	1624.1	–
295.4 K	1041.12	1623.3	–
295.65 K	1040.95	1622.5	352.2
295.9 K	1040.78	1621.7	–
296.15 K	1040.61	1620.9	–
296.4 K	1040.44	1620.1	–
296.65 K	1040.27	1619.3	–
296.9 K	1040.1	1618.5	–
297.15 K	1039.93	1617.7	–
297.4 K	1039.76	1617	–
297.65 K	1039.59	1616.1	–
297.9 K	1039.42	1615.3	–
298.15 K	1039.24	1614.5	298.95
298.4 K	1039.08	1613.8	–
298.65 K	1038.9	1613	–
298.9 K	1038.73	1612.2	–
299.15 K	1038.56	1611.4	–
299.4 K	1038.39	1610.6	–
299.65 K	1038.22	1609.8	–
299.9 K	1038.05	1609	–
300.15 K	1037.88	1608.2	–
300.4 K	1037.71	1607.4	–
300.65 K	1037.54	1606.6	256.7
300.9 K	1037.37	1605.8	–
301.15 K	1037.2	1605	–
301.4 K	1037.03	1604.2	–
301.65 K	1036.87	1603.4	–
301.9 K	1036.7	1602.6	–
302.15 K	1036.54	1601.8	–
302.4 K	1036.38	1601	–
302.65 K	1036.2	1600.2	–
302.9 K	1036.04	1599.5	–
303.15 K	1035.87	1598.7	219.16
303.4 K	1035.71	1597.9	–
303.65 K	1035.54	1597.1	–
303.9 K	1035.38	1596.3	–
304.15 K	1035.21	1595.5	–
304.4 K	1035.04	1594.8	–
304.65 K	1034.88	1594	–
304.91 K	1034.71	1593.2	–
305.15 K	1034.54	1592.4	–
305.4 K	1034.38	1591.6	–
305.45 K	–	–	186.26
305.65 K	1034.21	1590.8	–
305.9 K	1034.04	1590.1	–
306.15 K	1033.88	1589.3	–
306.4 K	1033.71	1588.5	–
306.65 K	1033.54	1587.7	–
306.9 K	1033.38	1587	–
307.15 K	1033.2	1586.2	–
307.4 K	1033.04	1585.4	–
307.65 K	1032.87	1584.6	–
307.9 K	1032.7	1583.8	–
